Test system: lactic acid bacteria group (mainly, Lactobacillus spp.)
Experiment: Addition test of γ-PGA and fructo-oligosaccharide to human feces suspension
Type: cell-based
Conditions: human feces suspension in PBS medium, anaerobic culture 37° C. 4 days, quantitative PCR, 0.1-1.0% γ-PGA, 0.5% FOS, n=6
Experimental: The PBS solutions of Examples and Comparative Examples shown in Table 1 were prepared and used as media for feces culture. PBS alone was used as a negative control. As γ-PGA, polyglutamic acid “CALTAKE” manufactured by Ajinomoto Co., Inc. was used, and as FOS, fructo-oligosaccharide manufactured by Wako Pure Chemical Industries, Ltd. was used.
Thereafter, 10 ml each was dispensed into glass vials and the glass vials were sterilized by autoclave, made anaerobic, and sealed with a butyl rubber stopper. The feces suspension was prepared by collecting about 10 g of feces from 6 healthy individuals (3 men and 3 women) in their 20s to 40s and suspending same in 80 ml of anaerobic PBS. […] DNA was extracted from this pellet using ISOFECAL for BeadsBeat (manufactured by NIPPON GENE CO., LTD.), and quantitative PCR was performed using GeneAce SYBR qPCR Mix α (manufactured by NIPPON GENE CO., LTD.). Quantitative PCR was performed under the conditions of 45 cycles of 95° C. for 30 sec and 60° C. for 60 sec after 95° C. for 10 min. Primers for quantitative PCR used for detection of lactic acid bacteria group (mainly, Lactobacillus spp.) were as follows.
Using the results obtained by quantitative PCR, the relative amount when PBS alone (negative control) is 1 was calculated, and the results were normalized with z-score. […]

Substance: γ-polyglutamic acid [γ-PGA]
- proliferation of the lactic acid bacteria group: not observed
